The record followed here is ChEMBL document CHEMBL2150877, “γ-Secretase modulators as potential disease modifying anti-Alzheimer's drugs” (J Med Chem, 2011).

A short description of data set [1]: Inhibition of gamma secretase assessed as reduction in Abeta42 production.
Data set [2] in a line: Drug level in mouse brain at 5 mg/kg, po after 2 hrs. Further details: dose 5 mg/kg, route oral. In kind it is ADME, organism-based. Particulars: read-out: Drug uptake.
Data set [3] in a line: Ratio of drug level in brain to plasma in mouse at 5 mg/kg, po after 2 hrs. Further details: dose 5 mg/kg, route oral. The data set is classed as ADME, organism-based. As to conditions: read-out: BPR.
For data set [4], the system named is Mus musculus. Kind of data set: Brain penetration in mouse assessed as brain/plasma ratio at 100 or 300 mg/kg/day for 4 to 5 days. Particulars: in vivo. In kind it is ADME, organism-based.
Data set [5] can be described thus: Drug level in mouse brain dosed for 4 weeks. In kind it is ADME, organism-based. Particulars: read-out: Drug uptake.
Data set [6] is described as follows: Drug level in mouse plasma dosed for 4 weeks. The data set is classed as ADME, organism-based.
Data set [7] has as its system Mus musculus. Kind of data set: Antialzheimer activity in transgenic hAPP mouse expressing Swedish and London mutations assessed as reduction in plaque area in brain cortex dosed for 6 months. Further details: scale not given: the % may be the effect or the level left. In kind it is functional.
The test system of data set [8] is Mus musculus. The data set is described as follows: Antialzheimer activity in transgenic hAPP mouse expressing Swedish and London mutations assessed as reduction in plaque area in brain hippocampus dosed for 6 months. The data set is classed as functional. Further details: scale not given: the % may be the effect or the level left.
For data set [9], the system named is Mus musculus. The data set is described as follows: Antialzheimer activity in transgenic hAPP mouse expressing Swedish and London mutations assessed as reduction in plaque number in brain cortex dosed for 6 months. In kind it is functional. Also noted: scale not given: the % may be the effect or the level left.
For data set [10], the system named is Mus musculus. The data set is described as follows: Antialzheimer activity in transgenic hAPP mouse expressing Swedish and London mutations assessed as reduction in plaque number in brain hippocampus dosed for 6 months. Also noted: scale not given: the % may be the effect or the level left. In kind it is functional.
The subject of data set [11] is Mus musculus. The data set is described as follows: Antialzheimer activity in transgenic Alzheimer disease mouse model assessed as increase in recognition index at 125 ppm dosed for 10 months by object recognition memory test (reference value: 48.9%). In kind it is functional.
Data set [12] deals with Mus musculus. The data set is described as follows: Antialzheimer activity in transgenic Alzheimer disease mouse model assessed as increase in recognition index at 375 ppm dosed for 10 months by object recognition memory test (reference value: 48.9%). In kind it is functional.
Data set [13] in a line: Drug level in brain of Tg2576 mouse expressing human APP Swedish mutant at 60 mg/kg/day after 17 weeks. The data set is classed as ADME, organism-based. Particulars: read-out: Drug uptake.
Data set [14] in a line: Inhibition of gamma secretase assessed as reduction in Abeta42 production at 3 uM.
The nature of data set [15]: Inhibition of gamma secretase expressed in CHO cells assessed as reduction in Abeta42 production. In kind it is cell-based.
A short description of data set [16]: Inhibition of gamma secretase expressed in CHO cells assessed as reduction in Abeta40 and Abeta 42 production. The data set is classed as cell-based.
Data set [17] has as its system Mus musculus. Kind of data set: Antialzheimer activity in Tg2576 mouse assessed as reduction in Abeta42 production at 25 mg/kg, po after 18 hrs. In kind it is functional. Also noted: scale not given: the % may be the effect or the level left.
For data set [18], the system named is Mus musculus. Kind of data set: Antialzheimer activity in YAC transgenic mouse model assessed as reduction in brain Abeta42 levels at 10 mg/kg, po measured after 7 hrs. Also noted: scale not given: the % may be the effect or the level left. The data set is classed as functional.
In data set [19] the test system is Mus musculus. The data set is described as follows: Antialzheimer activity in po dosed YAC transgenic mouse model assessed as reduction in Abeta42 levels. In kind it is functional.
The test system of data set [20] is Mus musculus. The data set is described as follows: Antialzheimer activity in po dosed YAC transgenic mouse model assessed as plasma compound concentration causing reduction in brain Abeta42 levels. In kind it is functional, organism-based.
For data set [21], the system named is Mus musculus. Kind of data set: Antialzheimer activity in po dosed YAC transgenic mouse model assessed as brain compound concentration causing reduction in brain Abeta42 levels. The data set is classed as functional, organism-based.
For another data set, the species on record is Rattus norvegicus. Kind of data set: Antialzheimer activity in non-transgenic rat assessed as reduction in brain Abeta42 levels. Further details: scale not given: the % may be the effect or the level left. The data set is classed as functional.
The next data set has as its system Brain. Kind of data set: Drug level in rat brain brain. In kind it is ADME, tissue-based. Particulars: in vivo, read-out: Drug uptake.
Data set [22] is described as follows: Ratio of drug level in brain to plasma in rat. The data set is classed as ADME, cell-free. Particulars: read-out: BPR.
The subject of data set [23] is Mus musculus. Kind of data set: Antialzheimer activity in TASTPM transgenic mouse model assessed as reduction in brain Abeta42 levels at 100 mg/kg measured after 3 to 15 hrs. The data set is classed as functional. Further details: scale not given: the % may be the effect or the level left.
For data set [24], the system named is Mus musculus. The data set is described as follows: Antialzheimer activity in TASTPM transgenic mouse model assessed as increase in brain Abeta38 levels at 100 mg/kg measured after 3 to 15 hrs. The data set is classed as functional.
Data set [25] in a line: Drug level in mouse brain after 6 hrs. In kind it is ADME, tissue-based. Particulars: read-out: Drug uptake.
A short description of data set [26]: Drug level in mouse plasma after 6 hrs. The data set is classed as ADME, cell-free.
Data set [27] is described as follows: Tmax in po dosed mouse. In kind it is ADME, organism-based. As to conditions: in vivo.
Data set [28] in a line: Clearance in iv dosed mouse. The data set is classed as ADME, organism-based. As to conditions: in vivo.
A short description of data set [29]: Half life in po dosed mouse. The data set is classed as ADME, organism-based. Particulars: in vivo.
Data set [30] is described as follows: Oral bioavailability in po dosed mouse. The data set is classed as ADME, organism-based. Particulars: in vivo.
A short description of data set [31]: Inhibition of gamma secretase in Tg2576 mouse mixed brain cultures assessed as reduction in Abeta42 production.
Data set [32] can be described thus: Inhibition of gamma secretase in Tg2576 mouse mixed brain cultures assessed as reduction in Abeta40 production.
Data set [33] in a line: Inhibition of gamma secretase in Tg2576 mouse mixed brain cultures assessed as increase in Abeta38 production.
Data set [34] in a line: Plasma concentration in C57/BL/6 mouse at 50 mg/kg, po dosed once daily. The data set is classed as ADME, organism-based. Further details: dose 50 mg/kg, route oral.
A short description of data set [35]: Drug level in C57/BL/6 mouse brain at 50 mg/kg, po dosed once daily. Particulars: read-out: Drug uptake. The data set is classed as ADME, organism-based. Further details: dose 50 mg/kg, route oral.
Data set [36] can be described thus: Ratio of drug level in brain to plasma in C57/BL/6 mouse at 50 mg/kg, po dosed once daily. In kind it is ADME, organism-based. Further details: dose 50 mg/kg, route oral. Particulars: read-out: BPR.
Another data set concerns Plasma. Kind of data set: Plasma concentration in Tg2576 mouse at 50 mg/kg/day, po. Also noted: route oral. The data set is classed as ADME, organism-based. Particulars: in vivo.
Data set [37] relates to Mus musculus. Kind of data set: Antialzheimer activity in Tg2576 mouse assessed as reduction in plaque load in brain cortex at 50 mg/kg/day, po (reference value: 2.8%). In kind it is functional. Further details: scale not given: the % may be the effect or the level left.
The test system of data set [38] is Mus musculus. The data set is described as follows: Antialzheimer activity in Tg2576 mouse assessed as reduction in plaque load in brain hippocampus at 50 mg/kg/day, po (reference value: 0.5%). In kind it is functional. Also noted: scale not given: the % may be the effect or the level left.

`CC(C)CC[C@H](c1ncc(C(F)(F)F)cn1)N1CC[C@@H](CC(=O)O)C[C@H]1c1ccc(C(F)(F)F)cc1`: the half-maximal inhibitory concentration (IC50) (usually the midpoint of a concentration-inhibition curve) in data set [1] was 320 nM. Besides, the concentration at 2 h in data set [2] worked out at 4.2 µM. The Kp at 2 h in data set [3] is 0.74.
For the molecule `O=C(O)C1(c2ccc(-c3ccc(Cl)c(Cl)c3)c(F)c2)CC1`, the IC50 in data set [1] came out at 40000 nM. In the data set on Mus musculus [4], the permeability amounted to 5%. For the same molecule, the concentration at 672 h in data set [5] amounted to 20 µM; in data set [6], 580 µM. The Activity with Mus musculus [7] stood at 32%; in the data set on Mus musculus [8], 42%; with Mus musculus [9], 28%; in the data set with Mus musculus [10], 34%; with Mus musculus [11], 62.2%; with Mus musculus [12] it was 64.1%. Further, the concentration at 2856 h in [13] turned out to be 6.4 µM.
In the case of `CC(C)CC(C(=O)O)c1cc(Nc2cc(F)cc(F)c2)cc(-c2ccc(C(F)(F)F)cc2)c1` (stereo not given), the inhibition (commonly the percentage by which the read-out fell short of the control) in data set [14] turned out to be 73%.
Consider `CC(C)=CCCC(C)(O)[C@H]1CC[C@]2(C)[C@@H]1[C@H](O)C[C@@H]1[C@@]3(C)CC[C@H](O[C@@H]4O[C@H](CO)[C@@H](O)[C@H](O)[C@H]4O[C@@H]4O[C@H](CO)[C@@H](O)[C@H](O)[C@H]4O)C(C)(C)[C@@H]3CC[C@]12C` (stereo not given in full), for which the IC50 in [15] stood at 25000 nM; in data set [16] it was 200000 nM. In the data set on Mus musculus [17], the Activity was found to be 20%.
For `CC(C)(C)CC[C@H](CCC(F)(F)F)N1CCC(F)(F)[C@H](CC(=O)O)[C@H]1c1ccc(C(F)(F)F)cc1`, the half-maximal inhibitory concentration (IC50) in data set [1] amounted to 600 nM. In the data set with Mus musculus [18], the Activity is on record as 84%. Also, the median effective dose (ED50) – broadly, the midpoint of the dose-response relation – in the data set on Mus musculus [19] worked out at 5 mg/kg. The figures for the 50% effective concentration (EC50) in the data set on Mus musculus [20] and in the data set with Mus musculus [21] were 3700 nM and 1000 nM, respectively.
On to `CC(C)CC(C(=O)O)c1ccc(-c2ccc(C(F)(F)F)cc2)c(OCC2CC2)c1` (stereo not given), for which the concentration for half-maximal inhibition (IC50) in data set [1] was 140 nM. In addition, the Activity in the data set filed under Rattus norvegicus turned out to be 20%. Moreover, the concentration with Brain came to 10 µM. Besides, in data set [22], the Kp is 0.11.
Regarding `CC(C)CC[C@H](c1ccc(C(F)(F)F)nc1)N1CC[C@@H](CC(=O)O)C[C@H]1c1ccc(C(F)(F)F)cc1`, in [1], the IC50 was 800 nM. The Activity with Mus musculus [23] is recorded as 20%; in the data set with Mus musculus [24], 30%. The concentration at 6 h in data set [25] stood at 54.7 µM; in data set [26] it was 32.9 µM.
For `CCc1cc(Nc2nc(-c3ccc(-n4cnc(C)c4)c(F)c3)cs2)c(C)cc1C`, the Tmax (commonly the time at which the peak concentration occurs) in data set [27] came out at 3 h. Besides, the clearance (as a rule, the volume of plasma or blood freed of the substance per unit of time) in data set [28] is 3.33 mL/min/kg. Moreover, in data set [29], the half-life – broadly, the time in which the quantity being followed falls by half – is 2 h. Also, the bioavailability (usually the share of a dose that reaches the circulation, judged against a reference dose that is usually intravenous) in [30] was determined as 49%. In addition, the results for the IC50 in [31] and in [32] were 29 nM and 90 nM, respectively. In addition, the EC50 (usually the concentration needed to bring the measured effect to its halfway point) in [33] is 170 nM. Further, the AUC turned out to be 70000 ng·h/mL in [34] and 65000 ng·h/mL in [35]. Further, the Kp in data set [36] stood at 0.93. This molecule also had a concentration in the data set with Plasma of 4 µM. Further, the Activity in the data set with Mus musculus [37] was 7.6%; in the data set on Mus musculus [38], 1.9%.
